Here are results for six compounds from publication PMC10412597, “Small molecule branched-chain ketoacid dehydrogenase kinase (BDK) inhibitors with opposing effects on BDK protein levels” (Nature Communications, 2023).

The target in assay [1] is T1, BDK (branched-chain ketoacid dehydrogenase kinase, BCKDK; hBDK) (Homo sapiens, UniProt O14874).
T1 construct: purified recombinant kinase; construct details only in Supplementary Information; human stated for the crystal structures
As to the kind of experiment: biochemical. Also noted: TR-FRET BDK kinase assay, phosphorylation of LBD-E1 substrate, 15 uM ATP. The note with it: read-out: BDK in vitro IC50. The method, then:
705 covered with a lid and allowed to incubate at room temperature for 90 min. Final concentration of 706 LBD-E1 substrate was 50 nM and final concentration of ATP was 15 µM. Following incubation, 707 the enzyme reactions were stopped by adding 5 µL of 4X stop/primary antibody solution 708 containing 100 mM (final) EDTA, 2 nM (final) anti-His Eu antibody, and 1:1000 anti-pE1 antibody 709 in assay buffer. The plates were covered and incubated at room temperature for 30 min. Finally, 710 5 µL of 4X detection reagent consisting of 20 nM (final) anti-rabbit Ulight antibody and 1X LANCE 711 detection buffer in dH2O was then added. The plates were centrifuged for 30 seconds at 113 x g. 712 After a 60 min incubation, the plates were read on an EnVision® MultiReader in TR-FRET mode 713 (excitation 320 nm: emissions 665 nm). The raw data from the EnVision® MultiReader was 714 expressed as a ratio and was analyzed using proprietary software (Activity Base). […] IC50 values were determined from the percent effect data using a 4-parameter logistic dose 718 response model (Activity Base). To discover a potent and selective BDK inhibitor, a subset of the Pfizer compound collection was screened. […] Off target activity was assessed in both CEREP and kinase panels (Supplementary Tables 2, 3).

The target in assay [2] is T1, BDK (branched-chain ketoacid dehydrogenase kinase, BCKDK; hBDK). As to the kind of experiment: biochemical. More on the design: SPR binding to captured BDK, 1:1 binding model. The note with it: read-out: BDK SPR KD. The method, then:
828 Tween-20 and 2% DMSO. The same buffer was used as the running buffer during the 829 experiments. Compound samples were injected at a flow rate of 30 µL/min for 120 seconds of 830 association time followed by at least 300 seconds of dissociation period. The compounds were 831 tested in a concentration series consisting of at least 6 samples made with 2-fold dilution. The 832 highest concentration was selected based on compound potency in the biochemical assay or 833 binding affinity observed in a previous experiment. Multiple blank injections were run before and 834 after each compound series to allow double reference subtraction during data processing and 835 analysis. Radicicol was tested in every experiment as a positive control to assess activity of the 836 captured protein on the surface. A DMSO curve was run during each experiment to properly 837 correct for excluded volume. The data were processed and analyzed using Bruker Analyzer, 838 Scrubber and Biaeval softwares to calculate binding affinities and kinetics by fitting the data to 839 1:1 binding model. To discover a potent and selective BDK inhibitor, a subset of the Pfizer compound collection was screened. […] Off target activity was assessed in both CEREP and kinase panels (Supplementary Tables 2, 3).

Assay [3] has as its target T2, BDK-BCKDHE2 (biotinylated BDK with full length non-lipoylated E2 core subunit) (Homo sapiens, UniProt O14874).
T2 construct: gene BCKDK; E2 with N-terminal FLAG and TEV site, DBT residues 62-482, bacterial expression, non-lipoylated; with Lipoamide acyltransferase component of branched-chain alpha-keto acid dehydrogenase complex, mitochondrial
The assay can be described thus: AlphaLISA BDK-E2 protein-protein interaction, signal increase. It counts as binding.

Assay [4] deals with T3, BDK in human skeletal myocytes (Homo sapiens, UniProt O14874).
T3 construct: gene BCKDK; endogenous full kinase in human skeletal myocytes; read-out BCKDH E1alpha phosphorylation
As to the kind of experiment: AlphaLISA SureFire Ultra BCKDH phosphorylation in human skeletal myocytes. It counts as cell-based. Particulars: intact cells; read-out: Human skeletal myocyte IC50 (nM)^a. An excerpt:
AlphaLISA SureFire Ultra BCKDH phosphorylation in human skeletal myocytes on BDK in human skeletal myocytes
Background: Alpha assays give light when donor and acceptor beads are brought close together.

Assay [5] addresses T1, BDK (branched-chain ketoacid dehydrogenase kinase, BCKDK; hBDK). The assay can be described thus: SPR. It counts as binding. An excerpt: SPR on BDK (branched-chain ketoacid dehydrogenase kinase, BCKDK; hBDK)
Assay [6] has the same target. The assay can be described thus: FRET assay of BDK phosphorylation of E2 RBD-E1 peptide substrate. Type of assay: biochemical. Particulars: read-out: BDK in vitro IC50 (nM)^a. An excerpt:
FRET assay of BDK phosphorylation of E2 RBD-E1 peptide substrate on BDK (branched-chain ketoacid dehydrogenase kinase, BCKDK; hBDK)

A further assay deals with T4, Serotonin 5-HT2a (Homo sapiens, UniProt P28223).
T4 construct: gene HTR2A
Also noted: Cerep Bioprint off-target panel, functional receptor agonism or antagonism. The note with it: agonist. The method, then: To discover a potent and selective BDK inhibitor, a subset of the Pfizer compound collection was screened. […] Off target activity was assessed in both CEREP and kinase panels (Supplementary Tables 2, 3).

Assay [7] addresses T2, BDK-BCKDHE2 (biotinylated BDK with full length non-lipoylated E2 core subunit). As to the kind of experiment: AlphaLISA BDK-E2 protein-protein interaction, signal decrease. Type of assay: binding.

As usually defined, the IC50 is the concentration that gives 50% inhibition. In general, Kd refers to the equilibrium constant for the complex coming apart. Usually EC50 stands for the concentration at which the effect is half-maximal. A higher EC50 goes with a need for much substance.

Molecules are shown by their SMILES. Where two headings read alike, the source gives them in different places.

T4 sequence (P28223 whole entry): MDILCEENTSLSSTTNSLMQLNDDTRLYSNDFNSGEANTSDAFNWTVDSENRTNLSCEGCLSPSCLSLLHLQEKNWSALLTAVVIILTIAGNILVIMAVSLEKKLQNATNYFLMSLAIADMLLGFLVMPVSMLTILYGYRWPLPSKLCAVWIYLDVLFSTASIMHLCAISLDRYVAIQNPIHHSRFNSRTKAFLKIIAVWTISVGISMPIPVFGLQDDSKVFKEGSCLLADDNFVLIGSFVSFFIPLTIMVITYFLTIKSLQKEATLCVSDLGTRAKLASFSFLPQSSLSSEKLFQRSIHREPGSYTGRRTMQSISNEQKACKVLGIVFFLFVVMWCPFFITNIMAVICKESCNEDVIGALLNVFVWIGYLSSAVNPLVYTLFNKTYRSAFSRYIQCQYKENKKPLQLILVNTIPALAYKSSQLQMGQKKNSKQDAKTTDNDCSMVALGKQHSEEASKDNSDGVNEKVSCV

Turning to `Cc1ccc(-c2nc(-c3ccccc3C(=O)O)cs2)cc1` [S3], in assay [1], the IC50 was 1.2 ± 0.49 µM. Moreover, the Kd in assay [2] amounted to 5.8 ± 4.4 µM.
In assay [3] (stabilises BDK-E2 interaction, pH […] KCl, […] MgCl2, […] DTT), `CC(C)COc1ccc(-c2nc(-c3ccccc3C(=O)O)cs2)cn1` [PF-07238025] yielded a concentration for a half-maximal effect (EC50) of 0.019 ± 0.0017 µM. Moreover, the IC50 in assay [4] turned out to be 59 ± 10 nM; in assay [6], 4.5 ± 0.58 nM. Moreover, binding in assay [5] was characterised by a dissociation constant (Kd) of 4.4 ± 1.1 nM.
`CCC1(COc2ccc(-c3csc(-c4ccccc4C(=O)O)n3)cn2)CC1` [PF-07247685] registered a 50% effective concentration (EC50) in assay [3] of 0.0022 ± 0.00035 µM. In addition, the Kd in assay [5] was 0.68 ± 0.38 nM. In assay [6], the 50% inhibitory concentration (IC50) is 0.86 ± 0.15 nM. In addition, the “% (agonism) PF-07247685” value on Serotonin 5-HT2a (10 µM) is on record as 3%.
On to `O=C(O)c1cc2sc(F)cc2s1` [S2], for which, in assay [1], the IC50 was 0.21 ± 0.01 µM. Besides, in assay [2], the dissociation constant (Kd) came to 0.27 ± 0.031 µM.
For `O=C(O)c1sc2cc(Cl)sc2c1Cl` [S1], in that order: 0.6 ± 0.051 µM and 0.075 ± 0.002 µM.
For the compound `O=C(O)c1sc2cc(F)sc2c1Cl` [PF-07208254], half-maximal inhibition in assay [7] (IC50) was put at 0.056 ± 0.026 µM. Binding in assay [5] was put at a Kd of 84 ± 8.7 nM. Also, the “% (agonism) PF-07208254” value at Serotonin 5-HT2a (100 µM) was -5%.
